# Legend:
# ABUTH (Velvetleaf) [1] = experiment: Postemergence herbicidal evaluation; format: in vivo, Abutilon theophrasti; details: postemergence
# Procedure, shortened: (§1)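 Compound is applied as a foliar spray to seedlings about two weeks old, formulated in equal parts acetone and water with 0.5% TWEEN 20 and delivered at 40 psi to give about 0.0156–0.500 kg per hectare. Injury is rated visually 0–9 after four to five weeks.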
# [2] = test system: GLXMAW (Soybean, Williams); experiment: Postemergence herbicidal evaluation; format: in vivo, Glycine max, (L.) Merr. cv Williams; details: postemergence
# Procedure, shortened: as §1
# [3] = test system: IPOHE (Morningglory, Ivyleaf); experiment: Preemergence herbicidal evaluation; format: in vivo, Ipomoea hederacea; details: rated 4-5 weeks after treatment
# Procedure, shortened: (§2)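 Seeds were mixed with potting soil and planted on about one inch of soil, then sprayed with test compound in aqueous acetone at about 0.0156 to 0.500 kg per hectare. Plants grew under standard greenhouse care and were visually rated 0-9 against untreated controls 4-5 weeks post-treatment.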
# [4] = test system: ECHORC (Watergrass (Calif.)); experiment: Preemergence weed control under flooded paddy conditions; format: in vivo, Echinochloa oryzoides; details: rated 3-4 weeks after treatment
# Procedure, shortened: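 Flooded-pot preemergence screen with silt loam and seeds in the upper 0.5 cm. Dose about 0.0313 to 0.500 kg/ha, delivered into flood water; visual 0-9 score after 3 to 4 weeks.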
# ECHCG (Barnyardgrass) = experiment: Preemergence herbicidal evaluation; format: in vivo, Echinochloa crus-galli; details: rated 4-5 weeks after treatment
# Procedure, shortened: as §2
# ZEAMX (Corn, Field) = experiment: Postemergence herbicidal evaluation; format: in vivo, Zea mays; details: postemergence
# Procedure, shortened: as §1
# SETVI (Foxtail, Green) = experiment: Postemergence herbicidal evaluation; format: in vivo, Setaria viridis; details: postemergence
# Procedure, shortened: as §1
# CYPSE (Flatsedge) = experiment: Preemergence weed control under flooded paddy conditions; format: in vivo, Cyperus serotinus; details: rated 3-4 weeks after treatment
# Procedure, shortened: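 Values are visual 0-9 scores against a control for a preemergence application into paddy flood water at about 0.0313 to 0.500 kg/ha. Greenhouse duration was three to four weeks.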
# CASOB (Sicklepod) = experiment: Preemergence herbicidal evaluation; format: in vivo, Cassia obtusifolia; details: rated 4-5 weeks after treatment
# Procedure, shortened: as §2
# AMBEL (Ragweed, Common) = experiment: Preemergence herbicidal evaluation; format: in vivo, Ambrosia artemisifolia; details: rated 4-5 weeks after treatment
# Procedure, shortened: as §2
# ABUTH (Velvetleaf) [5] = experiment: Preemergence herbicidal evaluation; format: in vivo, Abutilon theophrasti; details: rated 4-5 weeks after treatment
# Procedure, shortened: as §2
# [6] = test system: IPOHE (Morningglory, Ivyleaf); experiment: Postemergence herbicidal evaluation; format: in vivo, Ipomoea hederacea; details: postemergence
# Procedure, shortened: as §1
structure (smiles),measurement,setting,value
"CCOC(=O)CN1C(=O)C(OC)SC1=Nc1cc(-n2c(=O)cc(C(F)(F)F)n(C)c2=O)c(F)cc1Cl (stereo not shown) [Compound 160, Ethyl 2-{{2-chloro-5-[3,6-dihydro-3-methyl-2,6-dioxo-4-(trifluoromethyl)-1(2H)-pyrimidinyl]-4-fluorophenyl}imino}-5-methoxy-4-oxo-3-thiazolidineacetate]",Herbicidal rating ABUTH,ABUTH (Velvetleaf) [1]; rate 0.0156 kg/ha,9.0
same,Herbicidal rating ABUTH,ABUTH (Velvetleaf) [1]; rate 0.0313 kg/ha,9.0
same,Herbicidal rating ABUTH,ABUTH (Velvetleaf) [1]; rate 0.0625 kg/ha,9.0
same,Herbicidal rating ABUTH,ABUTH (Velvetleaf) [1]; rate 0.1250 kg/ha,9.0
same,Herbicidal rating GLXMAW,[2]; rate 0.0156 kg/ha,5.0
same,Herbicidal rating GLXMAW,[2]; rate 0.0313 kg/ha,6.0
same,Herbicidal rating GLXMAW,[2]; rate 0.0625 kg/ha,7.0
same,Herbicidal rating GLXMAW,[2]; rate 0.1250 kg/ha,7.0
same,Preemergence herbicidal rating IPOHE,[3]; 0.0156 kg/ha,3.0
same,Preemergence herbicidal rating IPOHE,[3]; 0.0313 kg/ha,6.0
same,Preemergence herbicidal rating IPOHE,[3]; 0.0625 kg/ha,9.0
same,Preemergence herbicidal rating IPOHE,[3]; 0.1250 kg/ha,9.0
same,Preemergence herbicidal rating IPOHE,[3]; 0.2500 kg/ha,8.0
same,Preemergence herbicidal rating IPOHE,[3]; 0.5000 kg/ha,9.0
same,"herbicidal effect rating, ECHORC",[4]; 0.0313 kg/ha,0.0
same,"herbicidal effect rating, ECHORC",[4]; 0.0625 kg/ha,0.0
same,"herbicidal effect rating, ECHORC",[4]; 0.1250 kg/ha,2.0
same,"herbicidal effect rating, ECHORC",[4]; 0.2500 kg/ha,4.0
same,Preemergence herbicidal rating ECHCG,ECHCG (Barnyardgrass); 0.0156 kg/ha,0.0
same,Preemergence herbicidal rating ECHCG,ECHCG (Barnyardgrass); 0.0313 kg/ha,0.0
same,Preemergence herbicidal rating ECHCG,ECHCG (Barnyardgrass); 0.0625 kg/ha,1.0
same,Preemergence herbicidal rating ECHCG,ECHCG (Barnyardgrass); 0.1250 kg/ha,2.0
same,Preemergence herbicidal rating ECHCG,ECHCG (Barnyardgrass); 0.2500 kg/ha,9.0
same,Preemergence herbicidal rating ECHCG,ECHCG (Barnyardgrass); 0.5000 kg/ha,9.0
same,Herbicidal rating ZEAMX,"ZEAMX (Corn, Field); rate 0.0156 kg/ha",6.5
same,Herbicidal rating ZEAMX,"ZEAMX (Corn, Field); rate 0.0313 kg/ha",7.0
same,Herbicidal rating ZEAMX,"ZEAMX (Corn, Field); rate 0.0625 kg/ha",7.0
same,Herbicidal rating ZEAMX,"ZEAMX (Corn, Field); rate 0.1250 kg/ha",7.5
same,Herbicidal rating SETVI,"SETVI (Foxtail, Green); rate 0.0156 kg/ha",0.0
same,Herbicidal rating SETVI,"SETVI (Foxtail, Green); rate 0.0313 kg/ha",6.0
same,Herbicidal rating SETVI,"SETVI (Foxtail, Green); rate 0.0625 kg/ha",9.0
same,Herbicidal rating SETVI,"SETVI (Foxtail, Green); rate 0.1250 kg/ha",9.0
same,"herbicidal effect rating, CYPSE",CYPSE (Flatsedge); 0.0313 kg/ha,3.0
same,"herbicidal effect rating, CYPSE",CYPSE (Flatsedge); 0.0625 kg/ha,3.0
same,"herbicidal effect rating, CYPSE",CYPSE (Flatsedge); 0.1250 kg/ha,3.0
same,"herbicidal effect rating, CYPSE",CYPSE (Flatsedge); 0.2500 kg/ha,3.0
same,Preemergence herbicidal rating CASOB,CASOB (Sicklepod); 0.0156 kg/ha,0.0
same,Preemergence herbicidal rating CASOB,CASOB (Sicklepod); 0.0313 kg/ha,0.0
same,Preemergence herbicidal rating CASOB,CASOB (Sicklepod); 0.0625 kg/ha,2.0
same,Preemergence herbicidal rating CASOB,CASOB (Sicklepod); 0.1250 kg/ha,1.0
same,Preemergence herbicidal rating CASOB,CASOB (Sicklepod); 0.2500 kg/ha,7.0
same,Preemergence herbicidal rating CASOB,CASOB (Sicklepod); 0.5000 kg/ha,9.0
same,Preemergence herbicidal rating AMBEL,"AMBEL (Ragweed, Common); 0.0156 kg/ha",7.0
same,Preemergence herbicidal rating AMBEL,"AMBEL (Ragweed, Common); 0.0313 kg/ha",6.0
same,Preemergence herbicidal rating AMBEL,"AMBEL (Ragweed, Common); 0.0625 kg/ha",9.0
same,Preemergence herbicidal rating AMBEL,"AMBEL (Ragweed, Common); 0.1250 kg/ha",9.0
same,Preemergence herbicidal rating AMBEL,"AMBEL (Ragweed, Common); 0.2500 kg/ha",9.0
same,Preemergence herbicidal rating AMBEL,"AMBEL (Ragweed, Common); 0.5000 kg/ha",9.0
same,Preemergence herbicidal rating ABUTH,ABUTH (Velvetleaf) [5]; 0.0156 kg/ha,5.0
same,Preemergence herbicidal rating ABUTH,ABUTH (Velvetleaf) [5]; 0.0313 kg/ha,9.0
same,Preemergence herbicidal rating ABUTH,ABUTH (Velvetleaf) [5]; 0.0625 kg/ha,9.0
same,Preemergence herbicidal rating ABUTH,ABUTH (Velvetleaf) [5]; 0.1250 kg/ha,9.0
same,Preemergence herbicidal rating ABUTH,ABUTH (Velvetleaf) [5]; 0.2500 kg/ha,9.0
same,Preemergence herbicidal rating ABUTH,ABUTH (Velvetleaf) [5]; 0.5000 kg/ha,9.0
same,Herbicidal rating IPOHE,[6]; rate 0.0156 kg/ha,9.0
same,Herbicidal rating IPOHE,[6]; rate 0.0313 kg/ha,9.0
same,Herbicidal rating IPOHE,[6]; rate 0.0625 kg/ha,9.0
same,Herbicidal rating IPOHE,[6]; rate 0.1250 kg/ha,9.0

# Reference: patent US20020137929A1, “1 - (3-heterocyclylphenyl) isothiourea, -isourea, -guanidine and -amidine herbicidal agents” (Intellectual Property Department, BASF Aktiengesellschaft, priority 1998, published 2002)
